Each block holds one compound with its values, some of them ahead of it. Active and inactive are the calls of the source. No cut-off for these calls is given here.
Legend:
[1] = Antiproliferative activity against human Bel7402 cells assessed as cell viability after 48 hrs by MTT assay; type: functional, cell-based; conditions: Bel-7402, 48 h
A549 = assay: Antiproliferative activity against human A549 cells assessed as cell viability after 48 hrs by MTT assay; type: functional, cell-based; conditions: A549, 48 h
HeLa = assay: Antiproliferative activity against human HeLa cells assessed as cell viability after 48 hrs by MTT assay; type: functional, cell-based
MCF7 = assay: Antiproliferative activity against human MCF7 cells assessed as cell viability after 48 hrs by MTT assay; type: functional, cell-based; conditions: MCF7, 48 h
[2] = Inhibition of rat liver TrxR assessed as increase in absorbance by DTNB assay
[3] = Aqueous solubility of the compound in phosphate buffer at pH 7.4; type: physicochemical
Rattus norvegicus = organism: Rattus norvegicus; assay: Inhibition of rat liver TrxR assessed as increase in absorbance at 10 uM by DTNB assay
[4] = Cell cycle arrest in human Bel7402 cells assessed as cells accumulation at Sub-G1 phase at 1 uM after 48 hrs by flow cytometry (reference value: 1.47%); type: functional, cell-based; conditions: Bel-7402
[5] = Cell cycle arrest in human Bel7402 cells assessed as cells accumulation at G1 phase at 1 uM after 48 hrs by flow cytometry (reference value: 62.60%); type: functional, cell-based; conditions: Bel-7402
[6] = Cell cycle arrest in human Bel7402 cells assessed as cells accumulation at S phase at 1 uM after 48 hrs by flow cytometry (reference value: 13.99%); type: functional, cell-based; conditions: Bel-7402
[7] = Cell cycle arrest in human Bel7402 cells assessed as cells accumulation at G2/M phase at 1 uM after 48 hrs by flow cytometry (reference value: 16.61%); type: functional, cell-based; conditions: Bel-7402
[8] = Cell cycle arrest in human Bel7402 cells assessed as cells accumulation at Sub-G1 phase at 0.5 uM after 48 hrs by flow cytometry (reference value: 1.47%); type: functional, cell-based; conditions: Bel-7402
[9] = Cell cycle arrest in human Bel7402 cells assessed as cells accumulation at G1 phase at 0.5 uM after 48 hrs by flow cytometry (reference value: 62.60%); type: functional, cell-based; conditions: Bel-7402
[10] = Cell cycle arrest in human Bel7402 cells assessed as cells accumulation at S phase at 0.5 uM after 48 hrs by flow cytometry (reference value: 13.99%); type: functional, cell-based; conditions: Bel-7402
[11] = Cell cycle arrest in human Bel7402 cells assessed as cells accumulation at G2/M phase at 0.5 uM after 48 hrs by flow cytometry (reference value: 16.61%); type: functional, cell-based; conditions: Bel-7402
[12] = Cell cycle arrest in human Bel7402 cells assessed as cells accumulation at Sub-G1 phase at 3 uM after 48 hrs by flow cytometry (reference value: 1.47%); type: functional, cell-based; conditions: Bel-7402
[13] = Cell cycle arrest in human Bel7402 cells assessed as cells accumulation at G1 phase at 3 uM after 48 hrs by flow cytometry (reference value: 62.60%); type: functional, cell-based; conditions: Bel-7402
[14] = Cell cycle arrest in human Bel7402 cells assessed as cells accumulation at S phase at 3 uM after 48 hrs by flow cytometry (reference value: 13.99%); type: functional, cell-based; conditions: Bel-7402
[15] = Cell cycle arrest in human Bel7402 cells assessed as cells accumulation at G2/M phase at 3 uM after 48 hrs by flow cytometry (reference value: 16.61%); type: functional, cell-based; conditions: Bel-7402
[16] = Cell cycle arrest in human Bel7402 cells assessed as cells accumulation at Sub-G1 phase at 5 uM after 48 hrs by flow cytometry (reference value: 1.47%); type: functional, cell-based; conditions: Bel-7402
[17] = Cell cycle arrest in human Bel7402 cells assessed as cells accumulation at G1 phase at 5 uM after 48 hrs by flow cytometry (reference value: 62.60%); type: functional, cell-based; conditions: Bel-7402
[18] = Cell cycle arrest in human Bel7402 cells assessed as cells accumulation at S phase at 5 uM after 48 hrs by flow cytometry (reference value: 13.99%); type: functional, cell-based; conditions: Bel-7402
[19] = Cell cycle arrest in human Bel7402 cells assessed as cells accumulation at G2/M phase at 5 uM after 48 hrs by flow cytometry (reference value: 16.61%); type: functional, cell-based; conditions: Bel-7402
Bel-7402 [20] = assay: Induction of apoptosis in human Bel7402 cells assessed as detection error cells at 1 uM after 48 hrs by flow cytometry (reference value: 0.43%); type: functional
Bel-7402 [21] = assay: Induction of apoptosis in human Bel7402 cells assessed as necrotic cells at 1 uM after 48 hrs by flow cytometry (reference value: 0.19%); type: functional
Bel-7402 [22] = assay: Induction of apoptosis in human Bel7402 cells assessed as apoptotic cells at 1 uM after 48 hrs by flow cytometry (reference value: 0.73%); type: functional
Bel-7402 [23] = assay: Induction of apoptosis in human Bel7402 cells assessed as live cells at 1 uM after 48 hrs by flow cytometry (reference value: 98.65%); type: functional
Bel-7402 [24] = assay: Induction of apoptosis in human Bel7402 cells assessed as detection error cells at 0.5 uM after 48 hrs by flow cytometry (reference value: 0.43%); type: functional
Bel-7402 [25] = assay: Induction of apoptosis in human Bel7402 cells assessed as necrotic cells at 0.5 uM after 48 hrs by flow cytometry (reference value: 0.19%); type: functional
Bel-7402 [26] = assay: Induction of apoptosis in human Bel7402 cells assessed as apoptotic cells at 0.5 uM after 48 hrs by flow cytometry (reference value: 0.73%); type: functional
Bel-7402 [27] = assay: Induction of apoptosis in human Bel7402 cells assessed as live cells at 0.5 uM after 48 hrs by flow cytometry (reference value: 98.65%); type: functional
Bel-7402 [28] = assay: Induction of apoptosis in human Bel7402 cells assessed as detection error cells at 3 uM after 48 hrs by flow cytometry (reference value: 0.43%); type: functional
Bel-7402 [29] = assay: Induction of apoptosis in human Bel7402 cells assessed as necrotic cells at 3 uM after 48 hrs by flow cytometry (reference value: 0.19%); type: functional
Bel-7402 [30] = assay: Induction of apoptosis in human Bel7402 cells assessed as apoptotic cells at 3 uM after 48 hrs by flow cytometry (reference value: 0.73%); type: functional
Bel-7402 [31] = assay: Induction of apoptosis in human Bel7402 cells assessed as live cells at 3 uM after 48 hrs by flow cytometry (reference value: 98.65%); type: functional
Bel-7402 [32] = assay: Induction of apoptosis in human Bel7402 cells assessed as detection error cells at 5 uM after 48 hrs by flow cytometry (reference value: 0.43%); type: functional
Bel-7402 [33] = assay: Induction of apoptosis in human Bel7402 cells assessed as necrotic cells at 5 uM after 48 hrs by flow cytometry (reference value: 0.19%); type: functional
Bel-7402 [34] = assay: Induction of apoptosis in human Bel7402 cells assessed as apoptotic cells at 5 uM after 48 hrs by flow cytometry (reference value: 0.73%); type: functional
Bel-7402 [35] = assay: Induction of apoptosis in human Bel7402 cells assessed as live cells at 5 uM after 48 hrs by flow cytometry (reference value: 98.65%); type: functional

Structure (SMILES): COc1cccc(/C=C/c2ccc(-n3[se]c4ccccc4c3=O)cc2)c1
IC50 [1]: 13.2 µM
IC50 (A549): 10.4 µM
IC50 (HeLa): 7.34 µM
IC50 (MCF7): 9.62 µM
IC50 [2]: 12.8 µM

Structure (SMILES): COc1ccc(/C=C/c2ccc(N3Cc4ccccc4C3=O)cc2)cc1OC
IC50 [1]: > 10 µM
IC50 (A549): > 10 µM
IC50 (HeLa): > 10 µM
IC50 (MCF7): > 10 µM
solubility [3]: < 10 µM
inhibition (Rattus norvegicus): inactive

Structure (SMILES): O=c1c2ccccc2[se]n1-c1ccc(/C=C/c2ccccc2)cc1
IC50 [1]: 12.4 µM
IC50 (A549): 23.8 µM
IC50 (HeLa): 35.7 µM
IC50 (MCF7): 24.8 µM
inhibition (Rattus norvegicus): 22.4%

Structure (SMILES): COc1cc(/C=C/c2ccc(-n3[se]c4cc(OC)c(OC)cc4c3=O)cc2)cc(OC)c1
IC50 [1]: 25.4 µM
IC50 (A549): 52.6 µM
IC50 (HeLa): 31.6 µM
IC50 (MCF7): 88.9 µM
IC50 [2]: 7.53 µM

More lines, main results first:

IC50 (A549): 3.11 µM
IC50 (HeLa): 5.67 µM
IC50 (MCF7): 3.97 µM
IC50 [2]: 5.78 µM
Structure (SMILES): COc1cc(/C=C/c2ccc(-n3[se]c4ccccc4c3=O)cc2)cc(OC)c1OC
IC50 [1]: 1.11 µM

IC50 (A549): 43 µM
IC50 (HeLa): 28.4 µM
IC50 (MCF7): 56.3 µM
IC50 [2]: 9.62 µM
Structure (SMILES): COc1cc(/C=C\c2ccc(-n3[se]c4ccccc4c3=O)cc2)cc(OC)c1
IC50 [1]: 36.1 µM

IC50 (A549): 1.53 µM
IC50 (HeLa): 1.52 µM
IC50 (MCF7): 3.37 µM
solubility [3]: > 100 µM
IC50 [2]: 3.1 µM
Structure (SMILES): COc1ccc(/C=C/c2ccc(-n3[se]c4ccccc4c3=O)cc2)cc1OC
IC50 [1]: 1.01 µM
Activity [4]: 5.15%
Activity [5]: 49%
Activity [6]: 6.93%
Activity [7]: 33.8%
Activity [8]: 0.2%
Activity [9]: 55.8%
Activity [10]: 14%
Activity [11]: 22.2%
Activity [12]: 5.47%
Activity [13]: 40.4%
Activity [14]: 9.57%
Activity [15]: 42%
Activity [16]: 6.69%
Activity [17]: 37%
Activity [18]: 8.32%
Activity [19]: 44.2%
Activity (Bel-7402 [20]): 3.45%
Activity (Bel-7402 [21]): 3.04%
Activity (Bel-7402 [22]): 13.55%
Activity (Bel-7402 [23]): 79.95%
Activity (Bel-7402 [24]): 2.22%
Activity (Bel-7402 [25]): 1.29%
Activity (Bel-7402 [26]): 6.73%
Activity (Bel-7402 [27]): 89.75%
Activity (Bel-7402 [28]): 2.39%
Activity (Bel-7402 [29]): 5.49%
Activity (Bel-7402 [30]): 36.71%
Activity (Bel-7402 [31]): 55.41%
Activity (Bel-7402 [32]): 2.95%
Activity (Bel-7402 [33]): 5.26%
Activity (Bel-7402 [34]): 53.63%
Activity (Bel-7402 [35]): 38.16%
